Tests used:
SUIT-2 cells = assay: In vitro antiproliferative assay (MTS), SUIT-2; assay type: cell-based, human; conditions: 4 day
Method: Cells were plated at a density of 3000 (THLE-2 and PC-3) and 1000 (PANC-1, SUIT-2 and FEMX) cells per well (on the basis of their growth rate) in 200 µl of medium in a 96-well plate. Medium was changed daily, and after four days, the assay was read using a MTS kit (Promega) according to the instructions of the manufacturer. Graphs display average of percent growth with standard deviation (n = 8).

AMPK(r) = assay: Millipore kinaseprofiler diversity array; assay type: biochemical, rat; conditions: 10 µM MS-0022
Method: (§1) Table 4 Kinase activity in presence of 10 µM MS-0022 in a kinaseprofiler diversity array. | column: Activity %

PANC-1 cells = assay: Passage growth assay, PANC-1; assay type: cell-based, human; conditions: 5 µM, passages of 5–7 days
Method: (§2) 20,000 cells were seeded per well in 6 well plates (triplicates) with DMSO or 5 µM MS-0022. Treatment medium was changed on day 3–5, and after 5–7 days the cells were trypsinized, re-suspended in medium and counted, before reseeding cells at 20,000/well for a subsequent passage. The average growth of MS-0022 treated cells was calculated as a percentage of the growth of the DMSO control at the end of each passage. Graphs display average of percent growth with standard deviation bars (n = 3).

EphA5(h) = target: T1, EphA5(h) (Homo sapiens, UniProt P54756); assay: Millipore kinaseprofiler diversity array; assay type: biochemical; conditions: 10 µM MS-0022
T1 construct: purchased Millipore (Upstate) KinaseProfiler
Method: as §1

PKA(h) = target: T2, PKA(h) (Homo sapiens, UniProt P17612); assay: Millipore kinaseprofiler diversity array; assay type: biochemical; conditions: 10 µM MS-0022
T2 construct: purchased Millipore (Upstate) KinaseProfiler
Method: as §1

Abl(h) = target: T3, Abl(h) (Homo sapiens, UniProt P00519); assay: Millipore kinaseprofiler diversity array; assay type: biochemical; conditions: 10 µM MS-0022
T3 construct: purchased Millipore (Upstate) KinaseProfiler
Method: as §1

GSK3β(h) = target: T4, GSK3β(h) (Homo sapiens, UniProt P49841); assay: Millipore kinaseprofiler diversity array; assay type: biochemical; conditions: 10 µM MS-0022
T4 construct: purchased Millipore (Upstate) KinaseProfiler
Method: as §1

Pim-1(h) = target: T5, Pim-1(h) (Homo sapiens, UniProt P11309); assay: Millipore kinaseprofiler diversity array; assay type: biochemical; conditions: 10 µM MS-0022
T5 construct: purchased Millipore (Upstate) KinaseProfiler
Method: as §1

MAPKAP-K2(h) = target: T6, MAPKAP-K2(h) (Homo sapiens, UniProt P49137); assay: Millipore kinaseprofiler diversity array; assay type: biochemical; conditions: 10 µM MS-0022
T6 construct: purchased Millipore (Upstate) KinaseProfiler
Method: as §1

CDK9/cyclin T1(h) = target: T7, CDK9/cyclin T1(h) (Homo sapiens, UniProt P50750); assay: Millipore kinaseprofiler diversity array; assay type: biochemical; conditions: 10 µM MS-0022
T7 construct: purchased Millipore (Upstate) KinaseProfiler
Method: as §1

IKKα(h) = target: T8, IKKα(h) (Homo sapiens, UniProt O15111); assay: Millipore kinaseprofiler diversity array; assay type: biochemical; conditions: 10 µM MS-0022
T8 construct: purchased Millipore (Upstate) KinaseProfiler
Method: as §1

LOK(h) = target: T9, LOK(h) (Homo sapiens, UniProt O94804); assay: Millipore kinaseprofiler diversity array; assay type: biochemical; conditions: 10 µM MS-0022
T9 construct: purchased Millipore (Upstate) KinaseProfiler
Method: as §1

SAPK2a(h) = target: T10, SAPK2a(h) (Homo sapiens, UniProt Q16539); assay: Millipore kinaseprofiler diversity array; assay type: biochemical; conditions: 10 µM MS-0022
T10 construct: purchased Millipore (Upstate) KinaseProfiler
Method: as §1

MEK1(h) = target: T11, MEK1(h) (Homo sapiens, UniProt Q02750); assay: Millipore kinaseprofiler diversity array; assay type: biochemical; conditions: 10 µM MS-0022
T11 construct: purchased Millipore (Upstate) KinaseProfiler
Method: as §1

MST1(h) = target: T12, MST1(h) (Homo sapiens, UniProt Q13043); assay: Millipore kinaseprofiler diversity array; assay type: biochemical; conditions: 10 µM MS-0022
T12 construct: purchased Millipore (Upstate) KinaseProfiler
Method: as §1

EphB4(h) = target: T13, EphB4(h) (Homo sapiens, UniProt P54760); assay: Millipore kinaseprofiler diversity array; assay type: biochemical; conditions: 10 µM MS-0022
T13 construct: purchased Millipore (Upstate) KinaseProfiler
Method: as §1

Fyn(h) = target: T14, Fyn(h) (Homo sapiens, UniProt P06241); assay: Millipore kinaseprofiler diversity array; assay type: biochemical; conditions: 10 µM MS-0022
T14 construct: purchased Millipore (Upstate) KinaseProfiler
Method: as §1

CK1γ1(h) = target: T15, CK1γ1(h) (Homo sapiens, UniProt Q9HCP0); assay: Millipore kinaseprofiler diversity array; assay type: biochemical; conditions: 10 µM MS-0022
T15 construct: purchased Millipore (Upstate) KinaseProfiler
Method: as §1

CHK1(h) = target: T16, CHK1(h) (Homo sapiens, UniProt O14757); assay: Millipore kinaseprofiler diversity array; assay type: biochemical; conditions: 10 µM MS-0022
T16 construct: purchased Millipore (Upstate) KinaseProfiler
Method: as §1

ASK1(h) = target: T17, ASK1(h) (Homo sapiens, UniProt Q99683); assay: Millipore kinaseprofiler diversity array; assay type: biochemical; conditions: 10 µM MS-0022
T17 construct: purchased Millipore (Upstate) KinaseProfiler
Method: as §1

PAK2(h) = target: T18, PAK2(h) (Homo sapiens, UniProt Q13177); assay: Millipore kinaseprofiler diversity array; assay type: biochemical; conditions: 10 µM MS-0022
T18 construct: purchased Millipore (Upstate) KinaseProfiler
Method: as §1

PRAK(h) = target: T19, PRAK(h) (Homo sapiens, UniProt Q8IW41); assay: Millipore kinaseprofiler diversity array; assay type: biochemical; conditions: 10 µM MS-0022
T19 construct: purchased Millipore (Upstate) KinaseProfiler
Method: as §1

Mnk2(h) = target: T20, Mnk2(h) (Homo sapiens, UniProt Q9HBH9); assay: Millipore kinaseprofiler diversity array; assay type: biochemical; conditions: 10 µM MS-0022
T20 construct: purchased Millipore (Upstate) KinaseProfiler
Method: as §1

TAK1(h) = target: T21, TAK1(h) (Homo sapiens, UniProt O43318); assay: Millipore kinaseprofiler diversity array; assay type: biochemical; conditions: 10 µM MS-0022
T21 construct: purchased Millipore (Upstate) KinaseProfiler
Method: as §1

MLK1(h) = target: T22, MLK1(h) (Homo sapiens, UniProt P80192); assay: Millipore kinaseprofiler diversity array; assay type: biochemical; conditions: 10 µM MS-0022
T22 construct: purchased Millipore (Upstate) KinaseProfiler
Method: as §1

DRAK1(h) = target: T23, DRAK1(h) (Homo sapiens, UniProt Q9UEE5); assay: Millipore kinaseprofiler diversity array; assay type: biochemical; conditions: 10 µM MS-0022
T23 construct: purchased Millipore (Upstate) KinaseProfiler
Method: as §1

JNK3(h) = target: T24, JNK3(h) (Homo sapiens, UniProt P53779); assay: Millipore kinaseprofiler diversity array; assay type: biochemical; conditions: 10 µM MS-0022
T24 construct: purchased Millipore (Upstate) KinaseProfiler
Method: as §1

PKBα(h) = target: T25, PKBα(h) (Homo sapiens, UniProt P31749); assay: Millipore kinaseprofiler diversity array; assay type: biochemical; conditions: 10 µM MS-0022
T25 construct: purchased Millipore (Upstate) KinaseProfiler
Method: as §1

Rsk1(h) = target: T26, Rsk1(h) (Homo sapiens, UniProt Q15418); assay: Millipore kinaseprofiler diversity array; assay type: biochemical; conditions: 10 µM MS-0022
T26 construct: purchased Millipore (Upstate) KinaseProfiler
Method: as §1

KDR(h) = target: T27, KDR(h) (Homo sapiens, UniProt P35968); assay: Millipore kinaseprofiler diversity array; assay type: biochemical; conditions: 10 µM MS-0022
T27 construct: purchased Millipore (Upstate) KinaseProfiler
Method: as §1

IGF-1R(h) = target: T28, IGF-1R(h) (Homo sapiens, UniProt P08069); assay: Millipore kinaseprofiler diversity array; assay type: biochemical; conditions: 10 µM MS-0022
T28 construct: purchased Millipore (Upstate) KinaseProfiler
Method: as §1

ROCK-I(h) = target: T29, ROCK-I(h) (Homo sapiens, UniProt Q13464); assay: Millipore kinaseprofiler diversity array; assay type: biochemical; conditions: 10 µM MS-0022
T29 construct: purchased Millipore (Upstate) KinaseProfiler
Method: as §1

CDK1/cyclinB(h) = target: T30, CDK1/cyclinB(h) (Homo sapiens, UniProt P06493); assay: Millipore kinaseprofiler diversity array; assay type: biochemical; conditions: 10 µM MS-0022
T30 construct: purchased Millipore (Upstate) KinaseProfiler
Method: as §1

cKit(h) = target: T31, cKit(h) (Homo sapiens, UniProt P10721); assay: Millipore kinaseprofiler diversity array; assay type: biochemical; conditions: 10 µM MS-0022
T31 construct: purchased Millipore (Upstate) KinaseProfiler
Method: as §1

p70S6K(h) = target: T32, p70S6K(h) (Homo sapiens, UniProt P23443); assay: Millipore kinaseprofiler diversity array; assay type: biochemical; conditions: 10 µM MS-0022
T32 construct: purchased Millipore (Upstate) KinaseProfiler
Method: as §1

NEK2(h) = target: T33, NEK2(h) (Homo sapiens, UniProt P51955); assay: Millipore kinaseprofiler diversity array; assay type: biochemical; conditions: 10 µM MS-0022
T33 construct: purchased Millipore (Upstate) KinaseProfiler
Method: as §1

THLE-2 cells = assay: Passage growth assay, THLE-2; assay type: cell-based; conditions: 5 µM
Method: as §2

T13 sequence (P54760 16-987): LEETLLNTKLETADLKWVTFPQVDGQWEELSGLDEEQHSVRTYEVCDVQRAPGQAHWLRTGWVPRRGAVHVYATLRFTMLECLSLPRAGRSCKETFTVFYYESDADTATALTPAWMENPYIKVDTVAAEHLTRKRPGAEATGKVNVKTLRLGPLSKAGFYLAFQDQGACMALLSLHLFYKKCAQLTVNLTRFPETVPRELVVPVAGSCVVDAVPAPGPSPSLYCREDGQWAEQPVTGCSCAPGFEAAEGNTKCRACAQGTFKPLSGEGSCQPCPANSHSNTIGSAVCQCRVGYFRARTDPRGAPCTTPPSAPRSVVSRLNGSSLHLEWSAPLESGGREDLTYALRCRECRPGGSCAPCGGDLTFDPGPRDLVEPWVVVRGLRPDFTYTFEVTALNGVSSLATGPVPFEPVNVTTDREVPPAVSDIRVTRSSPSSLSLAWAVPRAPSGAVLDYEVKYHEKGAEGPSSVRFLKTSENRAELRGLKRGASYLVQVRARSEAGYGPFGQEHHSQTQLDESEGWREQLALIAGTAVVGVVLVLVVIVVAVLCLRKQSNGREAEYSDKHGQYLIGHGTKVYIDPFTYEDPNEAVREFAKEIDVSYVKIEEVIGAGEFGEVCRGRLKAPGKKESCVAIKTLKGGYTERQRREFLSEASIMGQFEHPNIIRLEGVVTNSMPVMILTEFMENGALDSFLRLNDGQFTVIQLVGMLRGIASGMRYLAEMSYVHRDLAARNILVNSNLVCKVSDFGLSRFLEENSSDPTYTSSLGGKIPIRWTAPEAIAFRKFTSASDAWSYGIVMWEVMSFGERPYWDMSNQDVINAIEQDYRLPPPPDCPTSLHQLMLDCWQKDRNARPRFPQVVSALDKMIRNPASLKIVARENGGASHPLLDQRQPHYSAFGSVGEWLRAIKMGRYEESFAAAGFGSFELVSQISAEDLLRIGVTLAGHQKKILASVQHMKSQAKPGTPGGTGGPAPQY
T14 sequence (P06241 whole entry): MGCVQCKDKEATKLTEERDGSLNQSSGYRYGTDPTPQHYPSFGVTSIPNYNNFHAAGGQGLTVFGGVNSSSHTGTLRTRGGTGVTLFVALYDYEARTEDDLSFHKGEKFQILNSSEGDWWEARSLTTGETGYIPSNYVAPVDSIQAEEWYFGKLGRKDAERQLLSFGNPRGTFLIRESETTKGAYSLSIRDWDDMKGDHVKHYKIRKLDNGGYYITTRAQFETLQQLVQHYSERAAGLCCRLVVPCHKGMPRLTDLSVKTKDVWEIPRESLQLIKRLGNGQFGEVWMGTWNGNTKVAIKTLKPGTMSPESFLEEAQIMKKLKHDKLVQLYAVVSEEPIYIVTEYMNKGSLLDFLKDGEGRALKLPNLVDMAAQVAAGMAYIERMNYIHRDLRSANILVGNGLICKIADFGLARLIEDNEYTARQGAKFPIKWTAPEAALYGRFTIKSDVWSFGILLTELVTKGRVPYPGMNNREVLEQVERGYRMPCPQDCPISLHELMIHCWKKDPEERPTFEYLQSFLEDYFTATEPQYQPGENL
T4 sequence (P49841 whole entry): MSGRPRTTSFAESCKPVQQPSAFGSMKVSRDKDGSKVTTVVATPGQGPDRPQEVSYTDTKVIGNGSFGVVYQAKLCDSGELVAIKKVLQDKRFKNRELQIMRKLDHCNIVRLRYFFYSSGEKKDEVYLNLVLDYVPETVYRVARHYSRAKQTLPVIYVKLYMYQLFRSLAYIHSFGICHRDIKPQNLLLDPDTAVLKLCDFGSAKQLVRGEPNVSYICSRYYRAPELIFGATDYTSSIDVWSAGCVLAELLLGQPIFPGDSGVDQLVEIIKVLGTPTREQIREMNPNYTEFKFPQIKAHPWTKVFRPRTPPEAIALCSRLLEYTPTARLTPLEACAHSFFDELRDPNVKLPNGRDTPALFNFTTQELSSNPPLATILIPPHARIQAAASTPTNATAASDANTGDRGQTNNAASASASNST
T29 sequence (Q13464 whole entry): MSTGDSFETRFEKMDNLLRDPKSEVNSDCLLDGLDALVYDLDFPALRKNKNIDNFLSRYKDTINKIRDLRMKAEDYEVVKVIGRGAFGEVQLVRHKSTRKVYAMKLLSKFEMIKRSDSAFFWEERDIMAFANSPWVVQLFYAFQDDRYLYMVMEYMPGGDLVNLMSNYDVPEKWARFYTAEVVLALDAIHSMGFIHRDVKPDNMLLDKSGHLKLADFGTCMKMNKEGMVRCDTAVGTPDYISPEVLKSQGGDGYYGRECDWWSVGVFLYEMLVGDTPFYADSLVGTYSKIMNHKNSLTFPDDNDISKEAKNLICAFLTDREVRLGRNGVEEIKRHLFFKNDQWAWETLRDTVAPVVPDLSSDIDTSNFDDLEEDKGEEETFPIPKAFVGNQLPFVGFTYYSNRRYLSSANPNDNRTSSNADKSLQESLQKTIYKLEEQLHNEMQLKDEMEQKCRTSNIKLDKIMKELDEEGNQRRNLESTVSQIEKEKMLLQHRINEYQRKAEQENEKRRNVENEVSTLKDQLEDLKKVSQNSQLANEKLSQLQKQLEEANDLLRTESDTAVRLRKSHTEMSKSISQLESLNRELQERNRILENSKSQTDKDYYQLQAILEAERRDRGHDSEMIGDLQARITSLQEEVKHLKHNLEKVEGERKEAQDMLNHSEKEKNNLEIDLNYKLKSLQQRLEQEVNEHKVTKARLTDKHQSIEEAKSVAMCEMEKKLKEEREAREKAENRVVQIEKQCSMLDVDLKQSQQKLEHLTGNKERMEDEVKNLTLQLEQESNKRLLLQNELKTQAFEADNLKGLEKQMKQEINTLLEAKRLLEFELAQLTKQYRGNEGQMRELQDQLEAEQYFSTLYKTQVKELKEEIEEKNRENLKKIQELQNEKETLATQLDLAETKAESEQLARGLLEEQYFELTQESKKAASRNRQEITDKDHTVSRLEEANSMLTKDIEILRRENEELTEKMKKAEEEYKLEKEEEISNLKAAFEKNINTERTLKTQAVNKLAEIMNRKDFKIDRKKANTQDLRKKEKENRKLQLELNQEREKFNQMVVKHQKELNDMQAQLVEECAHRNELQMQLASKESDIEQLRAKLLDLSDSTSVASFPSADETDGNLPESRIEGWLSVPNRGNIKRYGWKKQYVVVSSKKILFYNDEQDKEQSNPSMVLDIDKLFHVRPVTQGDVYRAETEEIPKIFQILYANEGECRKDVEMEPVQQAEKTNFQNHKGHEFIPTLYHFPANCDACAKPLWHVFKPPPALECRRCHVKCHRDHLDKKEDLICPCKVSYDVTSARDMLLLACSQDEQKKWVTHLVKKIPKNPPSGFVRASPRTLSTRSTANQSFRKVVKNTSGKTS
T12 sequence (Q13043 whole entry): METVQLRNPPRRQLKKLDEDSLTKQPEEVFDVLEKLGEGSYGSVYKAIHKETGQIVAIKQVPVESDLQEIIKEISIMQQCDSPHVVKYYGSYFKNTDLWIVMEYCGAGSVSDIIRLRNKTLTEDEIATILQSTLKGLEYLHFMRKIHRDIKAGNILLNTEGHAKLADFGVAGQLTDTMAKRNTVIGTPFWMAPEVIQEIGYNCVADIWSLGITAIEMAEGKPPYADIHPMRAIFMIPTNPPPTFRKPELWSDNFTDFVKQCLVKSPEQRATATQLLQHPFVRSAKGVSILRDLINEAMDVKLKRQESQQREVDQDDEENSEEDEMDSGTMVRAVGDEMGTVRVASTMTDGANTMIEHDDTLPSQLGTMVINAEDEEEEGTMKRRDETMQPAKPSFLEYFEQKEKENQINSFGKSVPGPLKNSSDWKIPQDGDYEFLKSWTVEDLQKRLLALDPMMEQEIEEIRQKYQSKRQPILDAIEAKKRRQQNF
T10 sequence (Q16539 whole entry): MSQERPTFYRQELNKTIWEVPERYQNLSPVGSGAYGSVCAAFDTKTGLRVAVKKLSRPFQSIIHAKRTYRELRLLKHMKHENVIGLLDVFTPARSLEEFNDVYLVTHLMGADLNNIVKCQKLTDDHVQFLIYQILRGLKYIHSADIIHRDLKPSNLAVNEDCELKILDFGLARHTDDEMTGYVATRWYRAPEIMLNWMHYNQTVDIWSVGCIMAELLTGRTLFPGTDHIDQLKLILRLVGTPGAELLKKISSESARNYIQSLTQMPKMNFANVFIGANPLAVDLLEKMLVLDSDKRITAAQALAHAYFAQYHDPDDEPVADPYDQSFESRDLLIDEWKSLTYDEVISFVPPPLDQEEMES
T30 sequence (P06493 whole entry): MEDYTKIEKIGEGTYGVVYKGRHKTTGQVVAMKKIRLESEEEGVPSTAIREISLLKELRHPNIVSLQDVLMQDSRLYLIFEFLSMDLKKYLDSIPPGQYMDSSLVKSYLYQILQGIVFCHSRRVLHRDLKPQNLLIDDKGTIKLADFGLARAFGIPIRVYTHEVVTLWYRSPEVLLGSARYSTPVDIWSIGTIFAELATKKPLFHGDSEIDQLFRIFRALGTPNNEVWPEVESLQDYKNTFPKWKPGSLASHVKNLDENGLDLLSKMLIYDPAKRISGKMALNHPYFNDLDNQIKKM
T30 sequence (P14635 whole entry partner): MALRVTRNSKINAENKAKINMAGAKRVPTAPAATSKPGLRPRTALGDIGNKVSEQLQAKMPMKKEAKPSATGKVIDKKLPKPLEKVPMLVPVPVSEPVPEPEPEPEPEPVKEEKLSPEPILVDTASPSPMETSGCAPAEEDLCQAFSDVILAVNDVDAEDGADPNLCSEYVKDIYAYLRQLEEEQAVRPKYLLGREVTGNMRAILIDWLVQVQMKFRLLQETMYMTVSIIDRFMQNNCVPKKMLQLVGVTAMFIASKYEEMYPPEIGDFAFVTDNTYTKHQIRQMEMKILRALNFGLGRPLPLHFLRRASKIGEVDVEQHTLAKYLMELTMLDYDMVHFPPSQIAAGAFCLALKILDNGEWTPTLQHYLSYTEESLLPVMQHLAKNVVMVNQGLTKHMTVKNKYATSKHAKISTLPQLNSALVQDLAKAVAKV

## Cc1cccn2cc(-c3ccc(NC(=O)c4ccccc4Br)cc3)nc12 [MS-0022, 2-bromo-N-(4-(8-methylimidazo[1,2-a]pyridin-2-yl)phenyl)benzamide]
SUIT-2 cells
  growth (MTS), SUIT-2: only MS-0022 reduced growth
AMPK(r)
  Activity %: 98%
PANC-1 cells
  growth reduction after passage 2, PANC-1: 80%
EphA5(h)
  activity at 10 µM: 112%
PKA(h)
  activity at 10 µM: 100%
Abl(h)
  activity at 10 µM: 96%
GSK3β(h)
  activity at 10 µM: 88%
Pim-1(h)
  activity at 10 µM: 103%
MAPKAP-K2(h)
  activity at 10 µM: 92%
CDK9/cyclin T1(h)
  activity at 10 µM: 98%
IKKα(h)
  activity at 10 µM: 103%
LOK(h)
  activity at 10 µM: 93%
SAPK2a(h)
  activity at 10 µM: 102%
MEK1(h)
  activity at 10 µM: 73%
MST1(h)
  activity at 10 µM: 94%
EphB4(h)
  activity at 10 µM: 99%
Fyn(h)
  activity at 10 µM: 100%
CK1γ1(h)
  activity at 10 µM: 93%
CHK1(h)
  activity at 10 µM: 84%
ASK1(h)
  activity at 10 µM: 91%
PAK2(h)
  activity at 10 µM: 93%
PRAK(h)
  activity at 10 µM: 71%
Mnk2(h)
  activity at 10 µM: 90%
TAK1(h)
  activity at 10 µM: 98%
MLK1(h)
  activity at 10 µM: 103%
DRAK1(h)
  activity at 10 µM: 97%
JNK3(h)
  activity at 10 µM: 71%
PKBα(h)
  activity at 10 µM: 107%
Rsk1(h)
  activity at 10 µM: 91%
KDR(h)
  activity at 10 µM: 103%
IGF-1R(h)
  activity at 10 µM: 105%
ROCK-I(h)
  activity at 10 µM: 103%
CDK1/cyclinB(h)
  activity at 10 µM: 110%
cKit(h)
  activity at 10 µM: 109%
p70S6K(h)
  activity at 10 µM: 94%
NEK2(h)
  activity at 10 µM: 127%
THLE-2 cells
  growth by the second passage, THLE-2: not affected

— PMC3115942 (PLoS ONE, 2011)
